# Test results from ChEMBL document CHEMBL5500407, “Designing Chromane Derivatives as α2A-Adrenoceptor Selective Agonists via Conformation Constraint” (J Med Chem, 2024).
# pEC50, pKi: −log10 of the molar value. The source made the active and inactive calls. The rule behind the calls is not given here.
# How the values were obtained:
# [1] = target: T1, Alpha-1B adrenergic receptor (Homo sapiens, UniProt P35368); experiment: Binding affinity to human alpha1B-adrenoceptor
# T1 sequence (P35368 whole entry): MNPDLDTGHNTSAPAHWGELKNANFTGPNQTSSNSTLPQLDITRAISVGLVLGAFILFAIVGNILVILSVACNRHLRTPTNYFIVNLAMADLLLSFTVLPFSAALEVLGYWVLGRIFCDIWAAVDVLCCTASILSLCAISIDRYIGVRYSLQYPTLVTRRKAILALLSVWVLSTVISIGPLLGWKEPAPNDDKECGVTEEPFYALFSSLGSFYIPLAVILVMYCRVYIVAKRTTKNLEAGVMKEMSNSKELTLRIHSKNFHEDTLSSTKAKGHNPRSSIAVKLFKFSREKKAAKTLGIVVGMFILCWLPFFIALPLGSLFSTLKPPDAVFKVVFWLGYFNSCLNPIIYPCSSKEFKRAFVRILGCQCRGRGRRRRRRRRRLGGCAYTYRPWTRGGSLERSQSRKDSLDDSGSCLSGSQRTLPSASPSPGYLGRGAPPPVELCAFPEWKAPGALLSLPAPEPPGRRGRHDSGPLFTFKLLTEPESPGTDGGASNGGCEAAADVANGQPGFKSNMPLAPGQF
# [2] = target: T2, Alpha-1D adrenergic receptor (Homo sapiens, UniProt P25100); experiment: Binding affinity to human alpha1D-adrenoceptor
# T2 sequence (P25100 whole entry): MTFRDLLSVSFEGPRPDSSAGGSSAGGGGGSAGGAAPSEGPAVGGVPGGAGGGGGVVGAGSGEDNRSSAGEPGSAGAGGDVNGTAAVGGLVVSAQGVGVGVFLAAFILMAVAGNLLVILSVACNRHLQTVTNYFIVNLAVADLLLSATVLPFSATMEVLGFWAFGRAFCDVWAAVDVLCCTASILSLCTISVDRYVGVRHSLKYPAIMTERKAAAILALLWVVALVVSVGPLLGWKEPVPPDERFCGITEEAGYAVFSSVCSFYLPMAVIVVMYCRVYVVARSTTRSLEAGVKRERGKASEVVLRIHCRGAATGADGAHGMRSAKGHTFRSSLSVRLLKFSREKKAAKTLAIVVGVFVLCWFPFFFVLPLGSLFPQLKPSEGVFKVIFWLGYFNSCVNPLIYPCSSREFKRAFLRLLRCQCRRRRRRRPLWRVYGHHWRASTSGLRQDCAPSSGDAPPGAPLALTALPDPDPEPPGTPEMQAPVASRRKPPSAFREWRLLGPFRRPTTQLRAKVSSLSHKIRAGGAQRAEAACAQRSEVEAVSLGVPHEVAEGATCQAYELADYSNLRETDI
# [3] = target: T3, Alpha-2A adrenergic receptor (Homo sapiens, UniProt P08913)
# T3 sequence (P08913 whole entry): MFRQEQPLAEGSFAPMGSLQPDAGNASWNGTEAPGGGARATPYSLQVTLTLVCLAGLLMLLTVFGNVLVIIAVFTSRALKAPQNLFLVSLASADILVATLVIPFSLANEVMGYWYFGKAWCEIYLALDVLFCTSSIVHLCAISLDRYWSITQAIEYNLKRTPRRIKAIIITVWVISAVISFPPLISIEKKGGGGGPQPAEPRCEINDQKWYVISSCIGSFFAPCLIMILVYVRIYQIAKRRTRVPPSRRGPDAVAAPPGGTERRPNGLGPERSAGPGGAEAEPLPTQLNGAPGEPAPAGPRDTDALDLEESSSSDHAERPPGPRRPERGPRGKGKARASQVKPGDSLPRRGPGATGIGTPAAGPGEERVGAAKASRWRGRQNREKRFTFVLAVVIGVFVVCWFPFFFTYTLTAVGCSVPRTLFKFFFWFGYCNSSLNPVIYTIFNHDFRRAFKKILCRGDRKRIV
# Description: Agonist activity at alpha2A-adrenoceptor (unknown origin) expressed in CHO-alpha2-AR-PKAcatEGFP cells assessed as intracellular cAMP concentration by measuring PKA translocation after 15 mins incubation by PKA redistribution assay
# [4] = target: T3, Alpha-2A adrenergic receptor; remark: listed apart in the source
# Description: Binding affinity to human alpha2A-adrenoceptor
# [5] = target: T4, Alpha-2B adrenergic receptor (Homo sapiens, UniProt P18089)
# T4 sequence (P18089 whole entry): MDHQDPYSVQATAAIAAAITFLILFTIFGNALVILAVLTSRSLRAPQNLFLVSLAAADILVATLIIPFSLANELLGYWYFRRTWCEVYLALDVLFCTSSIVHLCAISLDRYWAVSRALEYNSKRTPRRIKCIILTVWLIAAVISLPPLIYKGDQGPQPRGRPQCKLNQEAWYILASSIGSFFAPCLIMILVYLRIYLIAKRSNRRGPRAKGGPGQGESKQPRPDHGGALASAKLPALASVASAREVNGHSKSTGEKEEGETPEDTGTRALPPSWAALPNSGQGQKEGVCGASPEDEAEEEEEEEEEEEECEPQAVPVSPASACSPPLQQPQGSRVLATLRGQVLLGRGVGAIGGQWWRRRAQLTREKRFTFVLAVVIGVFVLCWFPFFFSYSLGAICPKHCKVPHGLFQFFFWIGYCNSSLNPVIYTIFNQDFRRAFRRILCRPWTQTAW
# Description: Binding affinity to human alpha2B-adrenoceptor
# [6] = target: T5, Alpha-2C adrenergic receptor (Homo sapiens, UniProt P18825)
# T5 sequence (P18825 whole entry): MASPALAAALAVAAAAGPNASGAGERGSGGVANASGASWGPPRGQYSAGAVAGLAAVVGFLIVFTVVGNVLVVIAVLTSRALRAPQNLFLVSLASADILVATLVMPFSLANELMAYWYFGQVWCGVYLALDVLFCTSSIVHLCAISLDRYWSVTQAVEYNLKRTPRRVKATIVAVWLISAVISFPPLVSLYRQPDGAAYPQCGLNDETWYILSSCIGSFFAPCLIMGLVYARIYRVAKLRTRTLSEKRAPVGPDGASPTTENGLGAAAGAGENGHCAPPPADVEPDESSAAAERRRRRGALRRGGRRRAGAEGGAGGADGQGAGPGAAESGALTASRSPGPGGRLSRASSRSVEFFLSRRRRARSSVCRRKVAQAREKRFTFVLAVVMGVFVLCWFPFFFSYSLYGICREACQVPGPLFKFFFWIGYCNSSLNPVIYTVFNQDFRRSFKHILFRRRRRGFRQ
# Description: Binding affinity to human alpha2C-adrenoceptor
# [7] = target: T6, Alpha-1A adrenergic receptor (Homo sapiens, UniProt P35348)
# T6 sequence (P35348 whole entry): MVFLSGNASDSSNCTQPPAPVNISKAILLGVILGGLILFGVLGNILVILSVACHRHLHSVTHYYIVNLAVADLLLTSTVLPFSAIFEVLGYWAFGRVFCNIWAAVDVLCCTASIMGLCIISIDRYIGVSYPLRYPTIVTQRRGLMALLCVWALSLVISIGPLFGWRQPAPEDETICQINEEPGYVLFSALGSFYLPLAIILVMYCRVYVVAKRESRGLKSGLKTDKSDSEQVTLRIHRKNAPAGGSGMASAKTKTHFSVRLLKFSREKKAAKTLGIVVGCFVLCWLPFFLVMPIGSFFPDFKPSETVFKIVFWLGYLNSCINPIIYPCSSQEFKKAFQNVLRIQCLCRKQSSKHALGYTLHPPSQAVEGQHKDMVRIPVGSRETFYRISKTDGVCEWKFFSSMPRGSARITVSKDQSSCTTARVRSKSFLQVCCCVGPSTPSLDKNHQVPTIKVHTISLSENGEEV
# Description: Binding affinity to human alpha1A-adrenoceptor
# [8] = Selectivity index, ratio of EC50 for alpha2A-adrenoceptor (unknown origin) to EC50 for alpha1A-adrenoceptor (unknown origin)
# [9] = target: T6, Alpha-1A adrenergic receptor; experiment: Agonist activity at alpha1A-adrenoceptor (unknown origin) expressed in HEK293T cells assessed as fluorescence intensity measured after 30 mins by IP-one homogeneous time-resolved fluorescence assay; format: functional, cell-based
# [10] = Selectivity index, ratio of EC50 for alpha2A-adrenoceptor (unknown origin) to EC50 for alpha2C-adrenoceptor (unknown origin)
# [11] = Metabolic stability in mouse liver microsomes assessed as elimination half life; format: ADME, Microsome
# [12] = target: T4, Alpha-2B adrenergic receptor; experiment: Agonist activity at alpha2B-adrenoceptor (unknown origin) expressed in U2OS-EGFP-NFAT2-alpha2B-AR cells assessed as increase in intracellular calcium level measured after 15 mins incubation by Micro automated microscopy; format: functional, cell-based
# [13] = Selectivity index, ratio of EC50 for alpha2A-adrenoceptor (unknown origin) to EC50 for alpha2B-adrenoceptor (unknown origin)
# [14] = target: T5, Alpha-2C adrenergic receptor; experiment: Agonist activity at alpha2C-adrenoceptor (unknown origin) expressed in CHO-alpha2C-PKAcatEGFP cells assessed as increase in intracellular calcium level measured after 15 mins incubation by Micro automated microscopy; format: functional, cell-based
# [15] = Metabolic stability in mouse liver microsomes assessed as intrinsic clearance; format: ADME, Microsome; settings: read-out: CLH
# HEK293T [16] = experiment: Agonist activity at alpha2A-adrenoceptor Y409A mutant (unknown origin) expressed in HEK293T cells co-expressing pGloSensor-22F cAMP plasmid assessed as at 0.000001 to 100 uM measured after 10 mins incubation by multiplate reader; format: cell-based; settings: Homo sapiens, dose lower 1e-06 µM, dose upper 100.0 µM
# HEK293T [17] = experiment: Agonist activity at alpha2A-adrenoceptor F427A mutant (unknown origin) expressed in HEK293T cells co-expressing pGloSensor-22F cAMP plasmid assessed as at 1 to 100 uM measured after 10 mins incubation by multiplate reader; format: cell-based; settings: Homo sapiens, dose 1-100 µM
# HEK293T [18] = experiment: Agonist activity at alpha2A-adrenoceptor D128A mutant (unknown origin) expressed in HEK293T cells co-expressing pGloSensor-22F cAMP plasmid assessed as at 0.000001 to 100 uM measured after 10 mins incubation by multiplate reader; format: cell-based; settings: Homo sapiens, dose lower 1e-06 µM, dose upper 100.0 µM
# Mus musculus [19] = experiment: Hypnotic activity in ip dosed C57BL/6 mouse assessed as increase in loss of righting reflex (LORR)
# Mus musculus [20] = experiment: Hypnotic activity in ip dosed C57BL/6 mouse assessed as increase in immobility time; format: functional, organism-based
smiles,measurement,setting,value
Clc1cccc(Cl)c1N=C1NCCN1 [CLONIDINE],pKi,[1],5.13
same,pKi,[2],5.59
Clc1cc(Br)cc2c1OCC=C2c1c[nH]cn1,pEC50,[3],< 5.30
Brc1ccc2c(c1)OCCC2c1c[nH]cn1 (stereo unspecified),pEC50,[3],6.78
Cc1cccc2c1OCC=C2c1nc[nH]c1C,pEC50,[3],< 5.30
Clc1cccc2c1OCC=C2c1cnc[nH]1,pEC50,[3],7.89
Fc1ccc2c(c1)OCC=C2c1cnc[nH]1,pEC50,[3],< 5.30
COc1cccc2c1CCOC2C1=NCCN1 (stereo unspecified) [TASIPIMIDINE],pKi,[4],8.06
same,pKi,[1],6.28
same,pKi,[5],< 6.00
same,pKi,[6],< 6.00
same,pKi,[2],5.51
same,pKi,[7],5.51
Cc1ccc2c(c1)C(c1c[nH]cn1)=CCO2,pEC50,[3],6.05
Clc1ccc2c(c1)C(c1cnc[nH]1)=CCO2,pEC50,[3],6.05
Cc1cccc2c1OCC=C2c1c[nH]cn1,Selectivity Index,[8],14
same,pEC50,[9],7.53
same,Selectivity Index,[10],24
same,half-life,[11],4.87 min
same,pEC50,[12],7.00
same,Selectivity Index,[13],47
same,pEC50,[14],7.30
same,pEC50,[3],8.68
same,microsomal CLint,[15],284 µL/min/mg
C[C@H](c1c[nH]cn1)c1cccc2ccccc12,pKi,[4],7.81
same,pKi,[5],7.45
same,pKi,[6],7.75
same,pKi,[7],6.35
Cc1[nH]cnc1C1=CCOc2c(Cl)cccc21,pEC50,[3],< 5.30
Fc1cc(Br)c2c(c1)C(c1c[nH]cn1)=CCO2,Selectivity Index,[8],42
same,pEC50,[9],7.32
same,Selectivity Index,[10],24
same,pEC50,[12],7.08
same,Selectivity Index,[13],73
same,pEC50,[14],7.55
same,pEC50,[3],8.94
Fc1cccc2c1OCCC2c1c[nH]cn1 (stereo unspecified),pEC50,[3],7.24
Brc1cccc2c1OCC=C2c1c[nH]cn1,Activity,HEK293T [16],inactive
same,Selectivity Index,[8],41
same,pEC50,[9],7.49
same,Selectivity Index,[10],48
same,Activity,HEK293T [17],inactive
same,Activity,HEK293T [18],inactive
same,ED50,Mus musculus [19],1.54 mg/kg
same,half-life,[11],5.56 min
same,pEC50,[12],6.73
same,Activity,Mus musculus [20],Dose-Dependent Effect
same,Selectivity Index,[13],238
same,pEC50,[14],7.43
same,pEC50,[3],9.11
same,microsomal CLint,[15],249 µL/min/mg
Cc1ccc2c(c1)C(c1c[nH]cn1)CCO2 (stereo unspecified),pEC50,[3],5.69
Clc1cc(Cl)c2c(c1)C(c1c[nH]cn1)=CCO2,pEC50,[3],5.33
Cc1ccc2c(c1Br)OCC=C2c1c[nH]cn1,pEC50,[3],6.98
Fc1cccc2c1OCC=C2c1c[nH]cn1,pEC50,[3],7.11
Cc1cccc2c1OCCC2c1c[nH]cn1 (stereo unspecified),Selectivity Index,[8],1.2
same,pEC50,[9],8.62
same,Selectivity Index,[10],> 2000
same,half-life,[11],36.8 min
same,pEC50,[12],7.34
same,Selectivity Index,[13],22
same,pEC50,[14],< 5.30
same,pEC50,[3],8.68
same,microsomal CLint,[15],37.7 µL/min/mg
Brc1ccc2c(c1)OCC=C2c1c[nH]cn1,pEC50,[3],< 5.30
N=C(N)NC(=O)Cc1c(Cl)cccc1Cl [GUANFACINE],pKi,[1],3.87
same,pKi,[2],4.93
same,pKi,[7],5.33
Clc1cccc2c1OCCC2c1c[nH]cn1 (stereo unspecified),Selectivity Index,[8],1.7
same,pEC50,[9],8.39
same,Selectivity Index,[10],15
same,pEC50,[12],7.62
same,Selectivity Index,[13],10
same,pEC50,[14],7.45
same,pEC50,[3],8.63
Cc1cccc([C@H](C)c2c[nH]cn2)c1C [DEXMEDETOMIDINE],Activity,HEK293T [17],inactive
same,ED50,Mus musculus [19],0.11 mg/kg
same,Activity,Mus musculus [20],Dose-Dependent Effect
Brc1ccc2c(c1)C(c1c[nH]cn1)=CCO2,pEC50,[3],< 5.30
Clc1ccc2c(c1)C(c1c[nH]cn1)CCO2 (stereo unspecified),pEC50,[3],7.19
NC1=N[C@]2(CCc3cccc(Cl)c3C2)OC1,pKi,[4],9.50
same,pKi,[1],7.70
same,pKi,[5],9.60
same,pKi,[6],9.50
same,pKi,[2],7.60
same,pKi,[7],8.40
Fc1ccc2c(c1)OCCC2c1cnc[nH]1 (stereo unspecified),pEC50,[3],7.09
Brc1ccc2c(c1)C(c1c[nH]cn1)CCO2 (stereo unspecified),pEC50,[3],6.35
Clc1cccc2c(Nc3ccncc3)cccc12,pKi,[4],8.08
COc1ccc2c(c1)C(c1c[nH]cn1)=CCO2,pEC50,[3],< 5.30
C1=C(c2ccc3c(c2)CC3)CNCC1,pKi,[5],7.22
